pIC50: −log10 of the molar value.
Tests used:
Test in all cases: Full dose-response, survival of cancer cell line (SRB assay)
Assay type in all cases: cell-based
[1] = test system: HCT116; conditions: Homo sapiens, HCT-116; colon cancer; 48 hours of drug treatment; average of three individual experiments
Source text: (§1) Dulbecco's Modified Eagles Medium (DMEM), RPMI 1640 medium and propidium iodide (PI) were purchased from Sigma Aldrich (Darmstadt, Germany). For western blot, the antibodies; c-Myc, p^53, p^21, Bax, Bid, BclxL, GAPDH, caspase-3, caspase-9, p-ATM, p-ATR, p-Chk1, p-Chk2, p-P^53, and p-H2AX along with respective mouse/rabbit secondary antibodies were purchased from Cell Signaling Technology (Danvers, MA, USA). FITC Annexin V Apoptosis kit was purchased from BD Biosciences (New Jersey, USA). All other chemicals and solvents used were of standard analytical grade. The stock solutions of SIMR compounds were made in 100% DMSO and working solutions for treatments never exceeded >1% DMSO. The cell lines were gifted from Radiobiology and Experimental Radio Oncology lab, University Cancer Center, Hamburg University, Hamburg, Germany. F180 and HCT116 cells were cultured in DMEM media while MCF-7 and SKBR3 cells were cultured in RPMI along with 10% FBS and 5% CO2 in a humidified incubator at 37° C. The cells were grown on polystyrene T-75 (75 cm^2) culture flasks and all the experiments were performed at ˜70% cell confluency.
(§2) SRB assay was performed on DU-143 and MCF-7 cells in order to find out the sub-lethal dosage (IC50) of the synthesized compounds based on reported method with minor modifications. Briefly, 1×10^4 cells were seeded in a 96-well plate overnight and were treated with different concentrations of compounds and incubated further for 48 hours. The wells which were devoid of any treatment served as controls. After the treatment time, the plates were incubated with 50% trichloroacetic acid (TCA) at 4° C. for 1 hour. The cells were then washed, dried and exposed to 1% acetic acid for short period. Two hundred microliters of 10 mMtris base solution was then added with 10 min incubation after drying the plates and the OD was read at 492 nm by using a Multiskan™ GO (Thermo Scientific, USA) microplate Spectrophotometer.

[2] = test system: MCF7; conditions: Homo sapiens, breast cancer, 48 hours of drug treatment, average of three individual experiments
Source text: as §1, §2

[3] = test system: SKBR3; conditions: Homo sapiens, SK-BR-3; breast cancer; 48 hours of drug treatment; average of three individual experiments
Source text: as §1, §2

Compound	pIC50 [1]	pIC50 [2]	pIC50 [3]
CC1=C(c2ccc(Cl)c(Cl)c2)N2C(=N[C@H]3c4cc5c6c(c4OC[C@@H]3C2(C)C)CCCN6CCC5)S1 [Compound 1x]	5.64	6.42	5.85
COc1ccc(OC)c(C2=CSC3=N[C@@H]4c5c(ccc6ccccc56)OC[C@@H]4C(C)(C)N23)c1 [Compound 1n]	5.21	5.17	5.00
CC1=C(c2ccccc2)N2C(=N[C@@H]3c4c(ccc5ccccc45)OC[C@@H]3C2(C)C)S1 [Compound 1q]	5.33	4.93	5.03
CC(=O)Nc1ccc(C2=CSC3=N[C@@H]4c5c(ccc6ccccc56)OC[C@@H]4C(C)(C)N23)cc1 [Compound 1m]	5.43	5.35	5.19
CC1=C(c2ccc(Br)cc2)N2C(=N[C@@H]3c4c(ccc5ccccc45)OC[C@@H]3C2(C)C)S1 [Compound 1r]	5.14	5.09	5.12
COc1cccc2c1C(=O)c1c(O)c3c(c(O)c1C2=O)C[C@@](O)(C(=O)CO)C[C@@H]3O[C@H]1C[C@H](N)[C@H](O)[C@H](C)O1 [Doxorubicin, reference compound]	7.02	7.24	6.60
